In patent US4204069A, “Reductive alkylation” (Merck & Co., Inc., priority 1978, dated 1980):

Columns and labels:
β-1 adrenergic receptors [1] = target: T1, β-1 adrenergic receptors (Cavia porcellus, UniProt H0W3H1); experiment: Guinea pig atrial strips, atrial rate (chronotropic response), β-1 agonist activity; assay type: cell-based
T1 construct: conventionally isolated tissue preparations (guinea pig atrial and tracheal strips); from tissue; host or cells: guinea pig atrial strips
Protocol: (§1) The pharmaceutical activity of the present compounds was determined in vitro using conventionally isolated tissue preparations (guinea pig atrial and tracheal strips). […] Both chronotropic (rate) and inotropic (force) responses were thereby assessed. […] The observed effect on tracheal muscle relaxation is equated with and considered to be an indication of bronchodilator activity. The β-1 and β-2 adrenergic receptor designations are those of Lands et al., Nature, 214, page 597 (1967).

β-1 adrenergic receptors [2] = target: T1, β-1 adrenergic receptors; experiment: Guinea pig atrial strips, atrial force (inotropic response), β-1 agonist activity; assay type: cell-based; conditions: Atrial force (β-1)
Protocol: as §1

β-2 adrenergic receptors = target: T2, β-2 adrenergic receptors (Cavia porcellus, UniProt Q8K4Z4); experiment: Guinea pig tracheal strips, tracheal muscle relaxation, β-2 agonist activity (bronchodilator activity); assay type: cell-based
T2 construct: conventionally isolated tissue preparations (guinea pig atrial and tracheal strips); from tissue; host or cells: guinea pig tracheal strips
Protocol: as §1

[3] = Blood pressure of a rat after intravenous injection; assay type: in vivo; conditions: injected intravenously

T2 sequence (Q8K4Z4 whole entry): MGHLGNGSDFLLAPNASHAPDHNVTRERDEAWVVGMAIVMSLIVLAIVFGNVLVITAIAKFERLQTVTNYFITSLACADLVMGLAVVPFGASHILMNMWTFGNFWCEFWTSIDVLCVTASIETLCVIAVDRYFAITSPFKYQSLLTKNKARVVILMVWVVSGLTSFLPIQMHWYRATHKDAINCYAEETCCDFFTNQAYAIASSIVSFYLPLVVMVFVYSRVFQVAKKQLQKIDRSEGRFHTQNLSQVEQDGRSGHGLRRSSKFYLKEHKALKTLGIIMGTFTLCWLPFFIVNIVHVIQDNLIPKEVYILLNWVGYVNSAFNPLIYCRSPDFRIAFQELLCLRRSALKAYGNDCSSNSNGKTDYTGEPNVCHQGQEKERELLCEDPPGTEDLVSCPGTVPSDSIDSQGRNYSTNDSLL
T1 sequence (H0W3H1 1-470): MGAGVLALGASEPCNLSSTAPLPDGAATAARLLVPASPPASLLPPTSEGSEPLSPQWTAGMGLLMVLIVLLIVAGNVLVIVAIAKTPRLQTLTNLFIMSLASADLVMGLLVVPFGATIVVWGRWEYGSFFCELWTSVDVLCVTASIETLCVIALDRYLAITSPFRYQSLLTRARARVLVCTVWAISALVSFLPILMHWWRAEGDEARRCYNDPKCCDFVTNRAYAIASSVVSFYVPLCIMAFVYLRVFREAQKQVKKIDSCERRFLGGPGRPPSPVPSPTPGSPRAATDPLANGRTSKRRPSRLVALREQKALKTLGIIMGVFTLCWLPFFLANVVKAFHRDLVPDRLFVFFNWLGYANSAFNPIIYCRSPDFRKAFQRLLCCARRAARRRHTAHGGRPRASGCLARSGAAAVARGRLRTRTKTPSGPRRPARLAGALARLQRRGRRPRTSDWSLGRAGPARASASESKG

In the case of `CC(C)NCC(O)c1ccc2nc[nH]c2c1` (racemic) [R, S-BENZISO, R,S-1-(5-benzimidazolyl)-2-isopropylaminoethanol], the relative activity (β-1 adrenergic receptors [1]; Atrial rate (β-1), [ED50 (R,S-ISO)/ED50 (R,S-BENZISO)] × 100) is reported as 0.355, the Emax (β-1 adrenergic receptors [1]; Atrial rate (β-1), maximum response relative to R,S-ISO × 100, mean ± S.E.M.) is reported as 50 ± 9% and the EC50 (β-1 adrenergic receptors [1]; Atrial rate (β-1), mean ± S.E.M., n=5, administered as the dihydrochloride, read-out: pD2 (negative logarithm of ED50) (converted)) is reported as 6.17 µM. The “cardiac stimulation (β-1 force and rate)” value (β-1 adrenergic receptors [1]; in words, from Table I) was “cardiac stimulant”, the relative activity (β-1 adrenergic receptors [2]; [ED50 (R,S-ISO)/ED50 (R,S-BENZISO)] × 100) was 0.355 and the Emax (β-1 adrenergic receptors [2]; maximum response relative to R,S-ISO × 100, mean ± S.E.M.) was 33 ± 12%. For the same compound, the EC50 (β-1 adrenergic receptors [2]; mean ± S.E.M., n=3, administered as the dihydrochloride, read-out: pD2 (negative logarithm of ED50) (converted)) was 3.8 µM, the relative activity (β-2 adrenergic receptors; Tracheal relaxation (β-2), [ED50 (R,S-ISO)/ED50 (R,S-BENZISO)] × 100) was 4.79 and the Emax (β-2 adrenergic receptors; Tracheal relaxation (β-2), maximum response relative to R,S-ISO × 100, mean ± S.E.M.) was 58 ± 7%. The EC50 (β-2 adrenergic receptors; Tracheal relaxation (β-2), mean ± S.E.M., n=4, administered as the dihydrochloride, read-out: pD2 (negative logarithm of ED50) (converted)) was 1.66 µM, the “bronchodilator activity (β-2)” value (β-2 adrenergic receptors; in words, from Table I) was “good bronchodilator activity” and the “bronchodilator selectivity versus isoproterenol” value (β-2 adrenergic receptors; in words, from the β-2/β-1 ratio) was “more bronchodilator selective than is isoproterenol”. The “Ratio, β-2/β-1” value (β-2 adrenergic receptors; relative activity (tracheal relaxation)/relative activity (atrial rate)) was 13.5 and the “effect on blood pressure” value [3] was “decrease blood pressure”.
